The record followed here is US20150289512A1, “METHOD FOR PROMOTING PLANT GROWTH” (SUMITOMO CHEMICAL COMPANY, LIMITED, priority 2012, published 2015).

Molecules are shown by their SMILES.

Holding throughout (assay type): in vivo
The subject of assay [1] is Rice (variety: Nipponbare). As to the kind of experiment: Test Example 3: promotion of root growth by hydroponics of rice, 0.1 ppm. The following applies: Oryza sativa, hydroponic solution containing the test compound at 0.1 ppm, average of 4 or 5 individuals, read-out: Relative value of length of seminal root (%-untreated control plot). The essentials: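 Surface-sterilised Nipponbare seeds were germinated 3 days in the dark at 28 °C in ¼-strength Hoagland solution containing 0.1 ppm compound; DMSO-only solution served as control. Seedlings were then grown 3 days hydroponically at 26 °C, 4,000 lux, 16 h day. Seminal root length was measured and averaged over 4–5 plants.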

For assay [2], the system named is Nicotiana benthamiana. The assay is described as follows: Test Example 5: growth promotion under low-temperature stress by hydroponics of Nicotiana benthamiana, 1 ppm. The following applies: 1 ppm in medium, low-temperature stress 7 days at 1.5±1.0° C., green leaf area 3 days later, equation (1). The essentials: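 Seeds were grown in half-strength Murashige–Skoog medium (pH 5.8) containing 1 ppm compound for 7 days at 22 °C, then chilled 7 days at 1.5±1.0 °C and recovered 3 days at 22 °C. Green leaf area was imaged. Relative leaf area = 100×(treated − untreated)/(unstressed untreated − stressed untreated).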

For assay [3], the system named is Corn seeds (variety: Pioneer 120 31P41). As to the kind of experiment: Test Example 14: growth promotion under low-temperature stress by soil drench treatment of corn. The following applies: Zea mays, 120 h, soil drench 20 ml, low-temperature stress 5 days at 2.5° C., health score 0-5, average of 4 individuals, read-out: Relative value of score (%- untreated control plot); for change in vivo at 10 ppm: concentration tested 10 ppm; for change in vivo at 0.3 ppm: concentration tested 0.3 ppm; for change in vivo at 1 ppm: concentration tested 1 ppm. On the procedure: Test for Evaluating Growth Promotion Under Low-Temperature Stress by Soil Drench Treatment of Corn
Corn seeds (variety: Pioneer 120 31P41) were seeded in a culture soil (Aisai) in a plastic pot (φ55 mm×height of 58 mm), and cultivated for 7 days at 20-25° C., an illuminance of about 5,000 lux, and a day length of 16 hours.
A DMSO solution, which contained one of the compounds 1 to 9, 16, 17, 20, 23, 24, 28 to 32, 34, 45, 48, 50, 82 and 85 of the present invention at a concentration of 1,000-fold concentration of each test concentration, was prepared, and then diluted with distilled water to obtain each test solution. After that, 20 ml of the obtained test solution was used to perform soil drench treatment on the foot of the test plants. The test plants were cultivated for 2 days under the conditions of a temperature of 27° C., a humidity of 40-80%, an illuminance of about 5,000 lux, and a day length of 16 hours. This was used as a test plot treated with the compound. A plot having undergone the soil drench treatment with 20 ml of a 0.1% DMSO aqueous solution instead of the above DMSO solution containing the compound was used as an untreated control plot.
The plants having undergone the soil drench treatment were cultivated for 5 days under the conditions of a temperature of 2.5° C., a humidity of 40-80%, an illuminance of about 5,000 lux, and a day length of 16 hours, thereby exposing to low-temperature stress. After the exposure to the low-temperature stress, the plants were cultivated for 4 days under the conditions of a temperature of 27° C., a humidity of 40-80%, an illuminance of about 5,000 lux, and a day length of 16 hours.
After the cultivation, the health of each plant was scored according to the following evaluation index.
5: 4 or more leaves in which ⅔ or more of the area was healthy
4: 3 leaves in which ⅔ or more of the area was healthy
3: 2 leaves in which ⅔ or more of the area was healthy
2: 1 leaf in which ⅔ or more of the area was healthy
1: No leaf in which ⅔ or more of the area was healthy
An average of the scores of the health of 4 individuals was determined.

The subject of assay [4] is Rice (variety: Nipponbare). As to the kind of experiment: Test Example 1: promotion of root growth by hydroponics of rice, 10 ppm. The note with it: Oryza sativa, hydroponic solution containing the test compound at 10 ppm, average of 4 or 5 individuals, read-out: Relative value of length of seminal root (%-untreated control plot). The essentials: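 Surface-sterilised seeds germinated 3 days in the dark at 28° C in hydroponic solution with compound at 10 ppm, then grown 3 days hydroponically with compound at 10 ppm (26° C, 4,000 lux, 16 h day, 50% humidity). Seminal root length measured by image analysis, averaged over 4 or 5 plants per plot.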

Assay [5] has as its system Nicotiana benthamiana. As to the kind of experiment: Test Example 6: growth promotion under low-temperature stress by hydroponics of Nicotiana benthamiana, 0.1 ppm. The note with it: 0.1 ppm in medium, low-temperature stress 7 days at 1.5±1.0° C., green leaf area 3 days later, equation (1). On the procedure: Test for Evaluating Growth Promotion Under Low-Temperature Stress by Hydroponics of Nicotiana benthamiana
A DMSO solution, which contained one of the compounds 3, 7, 14, 16, 36, 39, 43, 45, 50, 52, 53, 54, 56, 57, 62, 63, 64, 65, 68, 69, 70, 71, 73, 74, 76, 77, 79, 80, 81, 84, 85, 86 and 87 of the present invention at a concentration of 100 ppm, was prepared. The DMSO solution of the compound of the present invention was added at a volume ratio of 1/1,000 to the Murashige•Scoog medium of a ½-fold concentration for the Murashige•Scoog medium (a medium containing 2.3 g of mixed salts (manufactured by Wako Pure Chemical Industries, Ltd.), 200 mg of Myo-inositol (manufactured by Sigma-Aldrich Co. LLC.), 2 mg of nicotinic acid (manufactured by Wako Pure Chemical Industries, Ltd.), 2 mg of pyridoxine hydrochloride (manufactured by Wako Pure Chemical Industries, Ltd.), 20 mg of thiamine hydrochloride (manufactured by Wako Pure Chemical Industries, Ltd.), 20 g of sucrose (manufactured by Wako Pure Chemical Industries, Ltd.), and 1 g of MES (manufactured by DOJINDO LABORATORIES) per 1 L of water and having pH adjusted to 5.8), thereby preparing a medium containing the compound of the present invention at a concentration of 0.1 ppm.
Seeds of Nicotiana benthamiana were seeded in the 5 μL of the medium and cultured overnight at 22° C. Thereafter, 45 μL of the medium containing the compound of the present invention at a concentration of 0.1 ppm was added thereto, and the seeds are cultivated for 7 days at 22° C., an illuminance of 4,000 lux, and a day length of 16 hours, and the nursery plants raised from the Nicotiana benthamiana were treated with the compound. Moreover, instead of the above medium a test plot, which was obtained by performing the same treatment by using a medium prepared by adding DMSO to the Murashige•Scoog medium of ½-fold concentration at a volume ratio of 1/1,000, was used as a control plot not treated with the compound.
The nursery plants of the Nicotiana benthamiana treated with the compound were subjected to low-temperature treatment by being cultivated for 7 days at 1.5±1.0° C., an illuminance of 2,000 lux, and a day length of 16 hours.
The nursery plants of the Nicotiana benthamiana having undergone the low-temperature stress treatment were cultivated for 3 days at 22° C., an illuminance of 4,000 lux, and a day length of 16 hours. Thereafter, the area of green leaf was quantified by Scanalyzer HTS (manufactured by LemnaTec GmbH). Moreover, the value of the control plot not treated with the compound that had not yet been subjected to the low-temperature stress treatment was measured in the same manner. A value of a relative leaf area was calculated based on the following equation (1), and if the value of a relative leaf area was 5 or greater, the compound was evaluated to have a mitigating effect. As a result of the evaluation, it was confirmed that when the plant was treated with one of the compounds 3, 7, 14, 16, 36, 39, 43, 45, 50, 52, 53, 54, 56, 57, 62, 63, 64, 65, 68, 69, 70, 71, 73, 74, 76, 77, 79, 80, 81, 84, 85, 86 and 87 of the present invention at 0.1 ppm, the value of a relative leaf area was 5 or greater, compared to the area of green leaf of the control plot not treated with compound. Accordingly, it was confirmed that the treatment using the compound of the present invention brings about a growth promotion effect.
Relative leaf area=100*(a green area of a plot treated with the compound of the present invention−a green area of a control plot not treated with the compound of the present invention)/(a green area of a control plot not treated with the compound of the present invention that has not yet been subjected to low-temperature stress treatment−green area of a control plot not treated with the compound of the present invention) Equation (1): […]

As for `O=C(O)c1cc2cc(C(F)(F)F)ccc2o1` [Compound 2, 5-trifluoromethylbenzofuran-2-carboxylic acid], the change in vivo at 0.1 ppm in assay [1] was > 5%. Besides, in the assay with Nicotiana benthamiana [2], the relative leaf area (% of untreated control) at 1 ppm is ≥ 5%. Moreover, the change in vivo at 10 ppm in assay [3] is > 5%.

On to `CCOC(=O)c1cc2cc(C(F)(F)F)ccc2o1` [Compound 4, ethyl 5-trifluorometethylbenzofuran-2-carboxylate], for which, in the assay with Nicotiana benthamiana [2], the relative leaf area (% of untreated control) at 1 ppm is ≥ 5%. For the same compound, the change in vivo at 10 ppm in assay [3] and in assay [4] was > 5% each time.

For `COc1ccc(NC(=O)c2cc3cc(C(F)(F)F)ccc3o2)c(OC)c1` [Compound 5, N-(2,4-dimethoxyphenyl)-5-trifluoromethylbenzofuran-2-carboxamide], in the assay with Nicotiana benthamiana [2], the relative leaf area (% of untreated control) at 1 ppm is ≥ 5%. In addition, the change in vivo at 0.3 ppm in assay [3] was > 5%. In addition, in assay [4], the change in vivo at 10 ppm was > 5%.

In the case of `O=C(O)c1cc2cc(C(F)(F)F)ccc2[nH]1` [Compound 7, 5-trifluoromethylindole-2-carboxylic acid], the relative leaf area (% of untreated control) at 0.1 ppm in the assay with Nicotiana benthamiana [5] was ≥ 5%. Besides, the change in vivo at 0.1 ppm in assay [1] is > 5%. In addition, the change in vivo at 1 ppm in assay [3] was > 5%.

`COC(=O)c1nc2ccccc2o1` [Compound 16, methyl benzoxazole-2-carboxylate]: in the assay with Nicotiana benthamiana [5], the relative leaf area (% of untreated control) at 0.1 ppm was ≥ 5%. In addition, in assay [1], the change in vivo at 0.1 ppm was > 5%. Further, in assay [3], the change in vivo at 1 ppm was > 5%.

`O=C(O)c1nc2cc(C(F)(F)F)ccc2[nH]1` [Compound 20, 5-(trifluoromethyl)-benzimidazole-2-carboxylic acid]: in assay [1], the change in vivo at 0.1 ppm was > 5%. In addition, the relative leaf area (% of untreated control) at 1 ppm in the assay with Nicotiana benthamiana [2] was ≥ 5%. The change in vivo at 0.3 ppm in assay [3] was > 5%.
